The values below come from ChEMBL document CHEMBL1201862, “PubChem BioAssay data set” (2004).

Among the test systems are SF-295; COLO 205; SF-539; OVCAR-4; SW-620; RPMI-8226; A549; KM12; MOLT-4; PC-3; SK-OV-3; SF-268; NCI-H226; A498; HOP-92; MDA-MB-231; OVCAR-3; T47D; SK-MEL-5.
Assay in all cases: NCI anticancer screen, dose series, 48 h

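Cells were grown in 96-well plates and exposed to each compound for 48 hours at five concentrations; endpoints were interpolated linearly between bracketing concentrations, or set to the highest concentration if not reached. Here, GI50 denotes the concentration required for 50% inhibition of growth.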 Activity calls are given as the source filed them. Rule as the data show it: active = GI50 up to about 1.1 µM and inactive = higher. Some results are limits rather than exact numbers.

In the case of `COc1ccc(OCC(=N/NC(=O)c2ccncc2)/N=C/c2ccncc2)cc1`, the GI50 was 42.9 µM (inactive) in the test with SF-295; 74 µM (inactive) in the test with COLO 205; > 100 µM (inactive) with SF-539; > 100 µM (inactive) with OVCAR-4; 53.5 µM (inactive) with SW-620; 40.7 µM (inactive) in the test on RPMI-8226. Also, the GI50 is > 100 µM (inactive) in the test on A549; 60 µM (inactive) in the test on KM12; 90.2 µM (inactive) in the test with MOLT-4; > 100 µM (inactive) in the test with PC-3; 94.4 µM (inactive) with SK-OV-3; > 100 µM (inactive) with SF-268. Also, the GI50 in the test on NCI-H226 is 67.5 µM (inactive); in the test with A498 it was 59.3 µM (inactive); in the test on HOP-92 it was 29.2 µM (inactive); in the test on MDA-MB-231 it was > 100 µM (inactive); with OVCAR-3, 48.6 µM (inactive); in the test on T47D it was > 100 µM (inactive).
As for `Cc1ccc2c(c1)CC1(C2=O)[C@H](c2ccccc2)C2C(=O)c3ccc(C)cc3C2[C@H]1c1ccccc1` (some centres not stated), the GI50 with SF-295, with COLO 205, with SF-539, in the test with OVCAR-4, in the test on SW-620 and with A549 was > 100 µM (inactive) throughout. The GI50 was > 100 µM (inactive) with KM12; 43.8 µM (inactive) in the test on MOLT-4; 37.8 µM (inactive) in the test on PC-3; > 100 µM (inactive) in the test on SK-OV-3; > 100 µM (inactive) with SF-268; > 100 µM (inactive) in the test with NCI-H226. The GI50 with A498, in the test on HOP-92, with MDA-MB-231, in the test with OVCAR-3 and in the test with T47D was > 100 µM (inactive) in each case.
For `Cc1c[n+]([O-])c2ccccc2[n+]1[O-]`, the GI50 in the test on SF-295, in the test on COLO 205, in the test on SF-539, in the test with OVCAR-4, with SW-620 and with RPMI-8226 was > 100 µM (inactive) throughout. Further, the GI50 in the test with A549, in the test on SK-MEL-5, in the test on KM12, in the test with MOLT-4, in the test with PC-3 and with SK-OV-3 was > 100 µM (inactive) in each case. Also, the GI50 in the test on SF-268, in the test on A498, in the test with HOP-92, in the test with MDA-MB-231, with OVCAR-3 and with T47D was > 100 µM (inactive) in each case.
Take `Oc1ccc2ccccc2c1CCc1c(O)ccc2ccccc12`: the GI50 with SF-295 was 11.7 µM (inactive); in the test with COLO 205 it was 15.7 µM (inactive); with SF-539, 16.2 µM (inactive); in the test on SW-620, 14.2 µM (inactive); in the test on RPMI-8226, 7.01 µM (inactive); with A549, 11.7 µM (inactive). Moreover, the GI50 in the test with SK-MEL-5 was 12.6 µM (inactive); in the test on KM12, 11.8 µM (inactive); in the test with PC-3, 13.9 µM (inactive); in the test on SK-OV-3 it was 15.8 µM (inactive); in the test on SF-268 it was 11 µM (inactive); in the test on NCI-H226 it was 13.7 µM (inactive). The GI50 was 18.5 µM (inactive) in the test on A498; 11 µM (inactive) in the test on HOP-92; 14.1 µM (inactive) in the test on MDA-MB-231; 4.42 µM (inactive) with OVCAR-3; 2.44 µM (inactive) with T47D.
Regarding `CC1=C(C(=O)c2ccccc2)C23C(=O)N(c4ccccc4)C(=O)C2=C(O)C=CC3(O)N1` (configuration not stated), the GI50 was 43.4 µM (inactive) in the test with SF-295; 50.8 µM (inactive) in the test with COLO 205; 47.9 µM (inactive) in the test with SF-539; 17.8 µM (inactive) in the test with OVCAR-4; 25.9 µM (inactive) with SW-620; 29.8 µM (inactive) in the test with RPMI-8226. Moreover, the GI50 was 50.2 µM (inactive) in the test with A549; 17.6 µM (inactive) with SK-MEL-5; 23.9 µM (inactive) with KM12; 28.4 µM (inactive) in the test with PC-3; 38.6 µM (inactive) with SF-268; 35 µM (inactive) in the test with NCI-H226. Also, the GI50 in the test with A498 is 40 µM (inactive); in the test with HOP-92, 17.5 µM (inactive); in the test with MDA-MB-231, 28 µM (inactive); in the test with OVCAR-3, 21.4 µM (inactive); with T47D, 37.2 µM (inactive).
With `CC(=O)O[C@@H]1[C@@H](O)C2=C3[C@]4(C)[C@@H]1C(C)(C)C(=O)C[C@@H]4[C@]3(O)[C@H](OC(C)=O)[C@@]1(C[C@@H]1C)C2=O`, the GI50 is 20.7 µM (inactive) with SF-295; 18.4 µM (inactive) in the test on COLO 205; 21.3 µM (inactive) with SF-539; 19.5 µM (inactive) with OVCAR-4; 18.3 µM (inactive) in the test with SW-620; 6.7 µM (inactive) in the test with RPMI-8226. Besides, the GI50 in the test on A549 is 24.2 µM (inactive); in the test on SK-MEL-5 it was 19.8 µM (inactive); with KM12, 16.6 µM (inactive); in the test on MOLT-4 it was 26.6 µM (inactive); in the test with PC-3 it was 19.6 µM (inactive); in the test with SK-OV-3, 24.2 µM (inactive). In addition, the GI50 is 25.1 µM (inactive) in the test with SF-268; 23.4 µM (inactive) in the test on A498; 15.6 µM (inactive) with HOP-92; 19.7 µM (inactive) in the test on MDA-MB-231; 18.5 µM (inactive) in the test on OVCAR-3; 16.3 µM (inactive) in the test on T47D.
`NC1CCCCC1.O=C(CP(=O)(O)O)NC(CC(=O)OCc1ccccc1)C(=O)OCc1ccccc1` (configuration not stated): the GI50 with SF-295, in the test with COLO 205, in the test with SF-539, with OVCAR-4, in the test on SW-620 and in the test with RPMI-8226 was > 100 µM (inactive) each time. In addition, the GI50 is > 100 µM (inactive) with A549; > 100 µM (inactive) with SK-MEL-5; > 100 µM (inactive) in the test with MOLT-4; 24.2 µM (inactive) in the test on PC-3; > 100 µM (inactive) with SK-OV-3; > 100 µM (inactive) in the test on SF-268. The GI50 in the test on NCI-H226, with A498, in the test with HOP-92, in the test with MDA-MB-231, in the test on OVCAR-3 and with T47D was > 100 µM (inactive) throughout.
For the molecule `CCSC1=N/C(=C\c2ccccc2O)C(Nc2ccc(C)cc2)=N1`, the GI50 in the test with SF-295 was 34.4 µM (inactive); in the test on COLO 205, > 100 µM (inactive); in the test on SF-539 it was 75 µM (inactive); in the test with SW-620, 50.6 µM (inactive); with RPMI-8226, > 100 µM (inactive); in the test on A549 it was 47.4 µM (inactive). The GI50 in the test on SK-MEL-5 is 30.2 µM (inactive); with KM12 it was 24.5 µM (inactive); in the test on MOLT-4, 29.2 µM (inactive); with PC-3, 25.9 µM (inactive); in the test on SK-OV-3, 42.7 µM (inactive); in the test on SF-268, 71.8 µM (inactive). The GI50 with NCI-H226 is 50.5 µM (inactive); in the test on A498, > 100 µM (inactive); in the test on HOP-92, 36.1 µM (inactive); in the test on MDA-MB-231, > 100 µM (inactive); in the test on OVCAR-3, 22.4 µM (inactive); with T47D it was 50 µM (inactive).
As to `Cn1c2c(c3ccccc31)CCN1OCC=C[C@@H](C(=O)O)[C@@H]21`, the GI50 with COLO 205, in the test with SF-539, with OVCAR-4, in the test with SW-620, in the test with A549 and in the test on SK-MEL-5 was > 100 µM (inactive) throughout. The GI50 in the test on KM12, in the test with PC-3, in the test on SK-OV-3, in the test with SF-268, with NCI-H226 and in the test on A498 was > 100 µM (inactive) each time. Also, the GI50 in the test with HOP-92 is 17.9 µM (inactive); in the test on MDA-MB-231, > 100 µM (inactive); in the test on OVCAR-3 it was > 100 µM (inactive); in the test on T47D, > 100 µM (inactive).
As for `CCCC1C(C#N)(C#N)C(C#N)=C(N)C1(C)C(C)=O` (configuration not stated), the GI50 is > 100 µM (inactive) in the test with SF-295; 65 µM (inactive) in the test on COLO 205; > 100 µM (inactive) in the test on SF-539; > 100 µM (inactive) in the test on SW-620; > 100 µM (inactive) in the test on RPMI-8226; > 100 µM (inactive) in the test on A549. Further, the GI50 is 65.2 µM (inactive) with SK-MEL-5; > 100 µM (inactive) with KM12; > 100 µM (inactive) with MOLT-4; > 100 µM (inactive) in the test with PC-3; > 100 µM (inactive) with SK-OV-3; > 100 µM (inactive) with SF-268. Also, the GI50 is 43.7 µM (inactive) with NCI-H226; > 100 µM (inactive) in the test with A498; 36.3 µM (inactive) in the test with HOP-92; > 100 µM (inactive) in the test on MDA-MB-231; 59 µM (inactive) with T47D.
For `COC(=O)/C=C(\S/C=C(/c1ccccc1)N1CCn2c(C(=O)c3ccccc3)c(C(=O)OC)c(C(=O)OC)c21)C(=O)OC`, the GI50 in the test with SF-295 is > 10 µM (inactive); in the test with COLO 205, 1.99 µM (inactive); in the test with SF-539, 2.29 µM (inactive); in the test with OVCAR-4 it was 2.81 µM (inactive); with SW-620 it was 0.565 µM (active); in the test with RPMI-8226, 2.43 µM (inactive). Besides, the GI50 in the test on A549 is > 10 µM (inactive); in the test with SK-MEL-5, > 10 µM (inactive); in the test with KM12 it was > 10 µM (inactive); in the test on MOLT-4 it was 1.79 µM (inactive); with PC-3, 6.25 µM (inactive); in the test on SK-OV-3, > 10 µM (inactive). The GI50 was > 10 µM (inactive) with NCI-H226; > 10 µM (inactive) in the test with A498; 1.23 µM (inactive) with HOP-92; 2.69 µM (inactive) with MDA-MB-231; 1.51 µM (inactive) with OVCAR-3; 2.92 µM (inactive) in the test on T47D.
